Read-outs that look alike come from different tables or passages of the source.
Experiments:
[1] = system: clinically isolated HIV strain G; test: Antiviral spectrum, cellular assay (fold resistance), strain G; type: cell-based; settings: FR=EC50(mutant strain)/EC50(HIV-1 strain LAI)
Protocol: (§1) HIV- or mock-infected MT4 cells were incubated for five days in the presence of various concentrations of the inhibitor. At the end of the incubation period, all HIV-infected cells have been killed by the replicating virus in the control cultures in the absence of any inhibitor. Cell viability is measured by measuring the concentration of MTT, a yellow, water soluble tetrazolium dye that is converted to a purple, water insoluble formazan in the mitochondria of living cells only. Upon solubilization of the resulting formazan crystals with isopropanol, the absorbance of the solution is monitored at 540 nm. The values correlate directly to the number of living cells remaining in the culture at the completion of the five day incubation. The inhibitory activity of the compound was monitored on the virus-infected cells and was expressed as EC50 and EC90. These values represent the amount of the compound required to protect 50% and 90%, respectively, of the cells from the cytopathogenic effect of the virus. The toxicity of the compound was measured on the mock-infected cells and was expressed as CC50, which represents the concentration of compound required to inhibit the growth of the cells by 50%. The selectivity index (SI) (ratio CC50/EC50) is an indication of the selectivity of the anti-HIV activity of the inhibitor.
(§2) Because of the increasing emergence of drug resistant HIV strains, the present compounds were tested for their potency against clinically isolated HIV strains harboring several mutations. These mutations are associated with resistance to protease inhibitors and result in viruses that show various degrees of phenotypic cross-resistance to the currently commercially available drugs such as for instance saquinavir, ritonavir, nelfinavir, indinavir and amprenavir.
(§3) As a measure of the broad spectrum activity of the present compounds, the fold resistance (FR) defined as FR=EC50(mutant strain)/EC50(HIV-1 strain LAI).

[2] = system: clinically isolated HIV strain R; test: Antiviral spectrum, cellular assay (fold resistance), strain R; type: cell-based; settings: FR=EC50(mutant strain)/EC50(HIV-1 strain LAI)
Protocol: as §1, §2, §3

[3] = system: clinically isolated HIV strain P; test: Antiviral spectrum, cellular assay (fold resistance), strain P; type: cell-based; settings: FR=EC50(mutant strain)/EC50(HIV-1 strain LAI)
Protocol: as §1, §2, §3

[4] = system: HIV-1 strain LAI; test: Cellular anti-HIV assay in MT4 cells (MTT), wild type laboratory strain; type: cell-based; settings: read-out: EC50 value against HIV-1 strain LAI
Protocol: The compounds of the present invention were examined for anti-viral activity in a cellular assay. […] The cellular assay was performed according to the following procedure.
Cellular Assay Experimental Method:
as §1

[5] = system: clinically isolated HIV strain I; type: cell-based; settings: FR=EC50(mutant strain)/EC50(HIV-1 strain LAI)
Procedure, shortened: (§4)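 First, MT4 cells were infected with HIV (or mock-infected) and incubated five days with varying inhibitor concentrations. Next, living cells were quantified via MTT reduction, measuring absorbance at 540 nm. Finally, EC50 was derived and fold resistance calculated relative to HIV-1 strain LAI.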

[6] = system: clinically isolated HIV strain T; type: cell-based; settings: FR=EC50(mutant strain)/EC50(HIV-1 strain LAI)
Procedure, shortened: as §4

[7] = system: clinically isolated HIV strain O; type: cell-based; settings: FR=EC50(mutant strain)/EC50(HIV-1 strain LAI)
Procedure, shortened: as §4

[8] = system: clinically isolated HIV strain J; type: cell-based; settings: FR=EC50(mutant strain)/EC50(HIV-1 strain LAI)
Procedure, shortened: as §4

[9] = system: clinically isolated HIV strain H; type: cell-based; settings: FR=EC50(mutant strain)/EC50(HIV-1 strain LAI)
Procedure, shortened: as §4

[10] = system: virus strain S (R13080); test: microbe, parasite or virus in culture; type: cell-based, HIV; settings: FR=EC50(mutant strain)/EC50(HIV-1 strain LAI); strain S
Procedure, shortened: as §4

[11] = system: virus strain F (R13025); test: microbe, parasite or virus in culture; type: cell-based, HIV; settings: FR=EC50(mutant strain)/EC50(HIV-1 strain LAI); strain F
Procedure, shortened: as §4

[12] = system: clinically isolated HIV strain D; test: Antiviral spectrum, cellular assay (fold resistance), strain D; type: cell-based; settings: FR=EC50(mutant strain)/EC50(HIV-1 strain LAI)
Protocol: as §1, §2, §3

[13] = system: clinically isolated HIV strain C; test: Antiviral spectrum, cellular assay (fold resistance), strain C; type: cell-based; settings: FR=EC50(mutant strain)/EC50(HIV-1 strain LAI)
Protocol: as §1, §2, §3

[14] = system: clinically isolated HIV strain L; test: Antiviral spectrum, cellular assay (fold resistance), strain L; type: cell-based; settings: FR=EC50(mutant strain)/EC50(HIV-1 strain LAI)
Protocol: as §1, §2, §3

[15] = system: clinically isolated HIV strain E; test: Antiviral spectrum, cellular assay (fold resistance), strain E; type: cell-based; settings: FR=EC50(mutant strain)/EC50(HIV-1 strain LAI)
Protocol: as §1, §2, §3

[16] = system: clinically isolated HIV strain Q; test: Antiviral spectrum, cellular assay (fold resistance), strain Q; type: cell-based; settings: FR=EC50(mutant strain)/EC50(HIV-1 strain LAI)
Protocol: as §1, §2, §3

[17] = system: clinically isolated HIV strain B; test: Antiviral spectrum, cellular assay (fold resistance), strain B; type: cell-based; settings: FR=EC50(mutant strain)/EC50(HIV-1 strain LAI)
Protocol: as §1, §2, §3

[18] = system: clinically isolated HIV strain A; test: Antiviral spectrum, cellular assay (fold resistance), strain A; type: cell-based; settings: FR=EC50(mutant strain)/EC50(HIV-1 strain LAI)
Protocol: as §1, §2, §3

[19] = system: clinically isolated HIV strain K; test: Antiviral spectrum, cellular assay (fold resistance), strain K; type: cell-based; settings: FR=EC50(mutant strain)/EC50(HIV-1 strain LAI)
Protocol: as §1, §2, §3

[20] = system: clinically isolated HIV strain N; test: Antiviral spectrum, cellular assay (fold resistance), strain N; type: cell-based; settings: FR=EC50(mutant strain)/EC50(HIV-1 strain LAI)
Protocol: as §1, §2, §3

[21] = system: clinically isolated HIV strain M; test: Antiviral spectrum, cellular assay (fold resistance), strain M; type: cell-based; settings: FR=EC50(mutant strain)/EC50(HIV-1 strain LAI)
Protocol: as §1, §2, §3

[22] = Pharmacokinetics after oral dosing in dogs (LC-MS); type: in vivo; settings: blood, 10 mg/kg, or, dog, 10 mpk
Protocol: (§5) The pharmacokinetic properties of compounds 20, 88 and 90 were tested on rats and dogs. The compounds were evaluated in Whistar rats, source Iffa Credo, weighing approximately 350 g. Before dosing the animals were fasted overnight (approximately 12 h fasting period). The compounds were dissolved in DMSO. The results represented in the table concern the results from the oral dosing of the compounds. Blood was sampled at 30 min, 1 h, 2 h, 3 h, no pre-dose sample was taken. The amount of the compound in the biological sample was determined using LC-MS. In the table below “or” means oral dosing, “mpk” means mg per kilogram.

[23] = Pharmacokinetics after oral dosing in rats (LC-MS); type: in vivo, Whistar rats; settings: for concentration at 3 h / Cmax: Wistar, blood, 10 mg/kg, or, rat, 10 mpk, DMSO; for concentration at 3 h: oral, read-out: C3hours; for Cmax: po
Protocol: as §5

[24] = Human immunodeficiency virus 1, 120 h, MT4 cells, five days, MTT

Structure (SMILES)	fold resistance (FR), strain G [1]	fold resistance (FR), strain R [2]	fold resistance (FR), strain P [3]	EC50 [4, 24] [µM]	fold resistance (FR), strain I [5]	fold resistance (FR), strain T [6]	fold resistance (FR), strain O [7]	fold resistance (FR), strain J [8]	fold resistance (FR), strain H [9]	fold resistance (FR), strain S [10]	fold resistance (FR), strain F [11]	fold resistance (FR), strain D [12]	fold resistance (FR), strain C [13]	fold resistance (FR), strain L [14]	fold resistance (FR), strain E [15]	fold resistance (FR), strain Q [16]	fold resistance (FR), strain B [17]	fold resistance (FR), strain A [18]	fold resistance (FR), strain K [19]	fold resistance (FR), strain N [20]	also measured
CCOC(=O)Nc1nc2ccc(S(=O)(=O)N(CC(C)C)CC(O)C(Cc3ccccc3)NC(=O)OC3COC4OCCC34)cc2s1 (stereo not drawn) [Compound 2]	0.2	0.3	0.2	< 0.05	0.7	29.6	0.8	0.4	1.0	1.7	1.1	0.3	0.2	0.2	0.4	0.3	0.2	0.3	0.2	1.1	fold resistance (FR), strain M [21]: 0.3
CC(C)CN(CC(O)C(Cc1ccccc1)NC(=O)OC1COC2OCCC12)S(=O)(=O)c1ccc2nc(NC(=O)CN3CCCC3)sc2c1 (stereo not drawn) [Compound 12]	0.2	0.4	0.1	< 0.05	0.4	5.9	0.4	0.3	0.4	0.8	0.4	0.4	0.3	0.1	0.4	0.4	0.4	0.3	0.2	0.4	fold resistance (FR), strain M [21]: 0.2
CC(C)CN(C[C@@H](O)[C@H](Cc1ccccc1)NC(=O)O[C@H]1CO[C@H]2OCC[C@H]21)S(=O)(=O)c1ccc2nc(NCCN(C)C)sc2c1 [Compound 16]	0.2	0.2	0.1	< 0.05	0.3	6.6	0.3	0.3	0.3	1.6	0.4	0.2	0.2	0.1	0.3	0.2	0.3	0.2	0.2	0.4	fold resistance (FR), strain M [21]: 0.2
CC(C)CN(C[C@@H](O)[C@H](Cc1ccccc1)NC(=O)O[C@H]1CO[C@H]2OCC[C@H]21)S(=O)(=O)c1ccc2nc(NCCN3CCCC3)sc2c1 [Compound 20]					0.4	2.6	0.2	0.2	0.5	0.5	0.5										Cmax ([22]; DMSO): 713 ng/mL; EC50 ([4]; Human immunodeficiency virus 1, MT4, 120 h): 0.05 to 0.5 µM; concentration at 3 h [23]: 401 ng/mL; Cmax [23]: 1420 ng/mL; plasma level ([23]; oral dosing, comment on Table 8 (rats and dogs)): high
Cc1cc(N)ccc1C(=O)NC(Cc1ccccc1)C(O)CN(CC(C)C)S(=O)(=O)c1ccc2nc(NC(=O)CN(C)C)sc2c1 (stereo not drawn) [Compound 43]	0.6	1.0	0.2	< 0.05	1.5	31.4	2.4	3.4	1.3	3.0	1.1	0.9	1.1	1.0	0.7	1.1	0.9	1.1	0.4	1.2	fold resistance (FR), strain M [21]: 1.2
CC(C)CN(C[C@@H](O)[C@H](Cc1ccccc1)NC(=O)O[C@H]1CO[C@H]2OCC[C@H]21)S(=O)(=O)c1ccc2nc(N(C)CCCN(C)C)sc2c1 [Compound 88]				< 0.05						26.3	8.7										Cmax ([22]; (PEG)): 379 ng/mL; concentration at 3 h [23]: 225 ng/mL; Cmax [23]: 254 ng/mL
CC(C)CN(C[C@@H](O)[C@H](Cc1ccccc1)NC(=O)O[C@H]1CCOC1)S(=O)(=O)c1ccc2nc(NCCN(C)C)sc2c1 [Compound 90]				< 0.05						128.8	28.8										Cmax ([22]; DMSO): 550 ng/mL; concentration at 3 h [23]: 684 ng/mL; Cmax [23]: 893 ng/mL

Source: patent US7659404B2, “Broad spectrum 2-(substituted-amino)-benzothiazole sulfonamide HIV protease inhibitors” (Tibotec Pharmaceuticals Ltd., priority 2001, dated 2010)
